Experimental data published in US6855549B1, “Methods and compositions for increasing the infectivity of gene transfer vectors” (The University of Iowa Research Foundation, priority 1998, dated 2005).

Tests used:
[1] = tested on: differentiated human airway epithelial cells; type: cell-based; details: 5 μM AZT at addition of FIV-βgal vector/EGTA to apical surface
[2] = tested on: differentiated human airway epithelia; assay: Transepithelial resistance of KGF-treated airway epithelia with Ca2+ chelators; type: cell-based
Procedure: Differentiated epithelial cells were treated with 100 ng/ml KGF for 24 hr. Different concentrations of each calcium chelator in HEPES/HCl (pH 7.4) or in isotonic HEPES/saline (pH 7.4) buffer were mixed with vector buffer and applied to the apical surface for times as specified (Wang et al., 1998). Transepithelial resistance was measured with an Ohmmeter (EVOM; World Precision Instruments, Inc. Sarasota, Fla.) by adding cell culture media to the apical surface and the values were compared to untreated controls.
To understand whether the tonicity of the vector solution affects epithelial permeability and gene transfer efficiency, hypotonic (40 mmol/kg) or isotonic (220 mmol/kg) solutions of 6 mM EGTA, EDTA or BAPTA were added to the MuLV vector buffer and applied to the apical surface of differentiated airway epithelial cells pre-treated with KGF. At specific time intervals, transepithelial resistance (R1) was measured using an Ohmmeter.

[3] = tested on: rabbit tracheal epithelium; assay: Tracheal transepithelial voltage (Vt) in anesthetized rabbits; type: in vivo; details: rabbit, in vivo
Procedure: Rabbit studies. The transepithelial electrical potential difference across the rabbit tracheal epithelium (Vt) was measured using a modification of previously described methods (Zabner et al., 1996). The reference electrode was a subcutaneous needle connected with sterile normal saline solution to a silver/silver chloride pellet. Adult New Zealand white rabbits (n=4/group) were anesthetized with 32 mg/kg ketamine, 5.1 mg/kg xylazine and 0.8 mg/kg acepromazine intramuscularly and placed with the head in the dependent position. An exploring electrode (pediatric size 8 Teflon-coated latex double lumen Foley catheter, modified Ruseh, Inc., Duluth, Ga.) was inserted into the tracheal lumen via a tracheotomy incision. One lumen of the catheter was filled with sterile normal saline solution and was connected to a silver/silver chloride pellet. Voltage was measured with a voltmeter connected to a strip chart recorder. The catheter was then left in that position for the entire recording period. The solutions were administered through the second lumen in the following order: 1) Normal saline for 5 min; 2) Sterile water with 10 mM EGTA for 10 min; 3) Normal saline with 10 mM EGTA for 5 min; and 4) Normal saline with 10 mM EGTA plus 100 μM amiloride for 5 min. Measurements of Vt were read by two investigators who were blinded to the treatment received. There wre no discrepancies in readings of greater than 2 mV between the investigators. Disruption of epithelial junctions was assessed by detecting a fall in […] Vt after perfusion with the chelator, and by the loss of amiloride-sensitive Vt after perfusion with the chelator solution.

human nasal epithelium = assay: Nasal transepithelial voltage (Vt) in human volunteers; type: in vivo; details: human, in vivo
Procedure: Human studies. The Vt across the nasal epithelium was measured in 6 volunteers using previously described methods (Zabner et al., 1996). The protocol followed was identical to that described above for the rabbit studies. […] The catheter was then left in that position for the entire recording period. The solutions were administered through the second lumen in the following order: 1) Normal saline for 5 min; 2) Sterile water with 10 mM EGTA or 10 mM EDTA for 10 min; 3) Nommal saline with 10 mM EGTA or 10 mM EDTA for 5 min; and 4) Normal saline with 10 mM, EGTA or 10 mM EDTA plus […] amiloride for 5 min. Measurements of Vt were read by two investigators who were blinded and wvere checked by a third investigator if there was a discrepancy of more than 2 mV. Disruption of epithelial junctions was assessed by detecting a fall in nasal Vt after perfusion with the chelator, and by the loss of amiloride-sensitive Vt after perfusion with the. chelator solution.

[4] = tested on: differentiated human airway epithelia; type: cell-based
human airway epithelia [5] = assay: BrdU labeling of differentiated human airway epithelia; type: cell-based; details: for BrdU incorporation versus control epithelia: EGF 200 ng/ml, heregulin 5 nM
Procedure: BrdU immunohistochemistry. BrdU labeling and immunostaining was performed using a kit from Zymed Laboratories Inc. (South San Francisco, Calif.). In studies that investigate the effects of growth factors, the cells may be treated with 50-100 ng/ml growth factor for 36 h. A 1:100 dilution of the BrdU labeling reagent was added to the culture media and cells labeled for 4 hours followed by fixation in 10% neutralized Formalin. BrdU histochemistry was performed following the methods of the Zymed BrdU kit. Labeled nuclei stained brown under these conditions. Epithelial cell preparations were examined microscopically en face or in cross sections of paraffin embedded membranes and the percentage of brown staining nuclei determined. Hematoxylin or 4′,6-diamidino-2-phenylindole, dibydrochloride (DAPI) (Molecular Probes, Eugene, Oreg.) were used for counterstains.
To determine whether growth factors are mitogenic to human airway epithelia, primary cultures of cells grown at the air-liquid interface were utilized. These cultures have ion transport properties and morphology similar to the intact surface epithelium (Smith et al., 1996; Kondo et al., 1991) and after 14 days in culture the cells are well-differentiated, ciliated, and have ion transport properties similar to the intact airways (Zabner et al., 1996; Yamaya et al., 1992). […] After 24 hours of growth factor treatment, growth factor administration doubles the monolayer cell number compared to control. HGF treatment (200 ng/ml) increased cell labeling to 17-36%, while 5-10% of untreated controls were BrdU positive (n=3).

human airway epithelia [6] = assay: [3H] thymidine incorporation in primary cultures of human airway epithelia; type: cell-based; details: 200 ng/ml HGF

## Cc1cn([C@H]2C[C@H](N=[N+]=[N-])[C@@H](CO)O2)c(=O)[nH]c1=O [AZT, 3′-azido-3′ deoxythymidine]
[1]
  expression of vector encoded product (pseudotransduction control): showed no significant expression of vector encoded product

## O=C(O)CN(CC(=O)O)c1ccccc1OCCOc1ccccc1N(CC(=O)O)CC(=O)O [BAPTA]
[2]; 6 mM, isotonic
  fall of R1, isotonic solution: quickly dropped R1, similar to the hypotonic solutions

## O=C(O)CN(CCN(CC(=O)O)CC(=O)O)CC(=O)O [EDTA]
[2]; 6 mM chelator, isotonic (220 mmol/kg)
  time required to decrease R1 to ~20% of the controls: Sixty

## N=C(N)NC(=O)c1nc(Cl)c(N)nc1N [amiloride]
[3]
  Vt response to amiloride in control tracheas perfused with saline: the anticipated fall in Vt in response to perfusion with amiloride
Human nasal epithelium
  nasal Vt response to amiloride in control studies: there was a significant fall in Vt with amiloride treatment

## O [water]
[4]; application of H2O or EGTA to epithelia, control studies
  effect on proliferation: had no effect on proliferation
[4]; pretreated with water alone, vector to mucosal surface, mean±SE, n=13
  epithelia expressing β-gal: 3±0.5%

## EGF: epidermal growth factor
Human airway epithelia [5]
  BrdU incorporation versus control epithelia: increased BrdU incorporation over control epithelia

## HGF: Hepatocyte growth factor, mitogen for pulmonary epithelia
Human airway epithelia [6]
  stimulation of cell division measured by [3H] thymidine incorporation: 3 fold
Human airway epithelia [5]; HGF 200 ng/ml, untreated controls 5-10% BrdU positive, n=3
  BrdU cell labeling: 17-36%

## heregulin
Human airway epithelia [5]
  BrdU incorporation versus control epithelia: increased BrdU incorporation over control epithelia
